{
  "source": "patent US20260069581A1",
  "about": "“METHODS AND COMPOSITIONS FOR CANCER THERAPY” (OHIO STATE INNOVATION FOUNDATION, priority 2020, published 2026)",
  "key": {"[1]": {"details": "in vivo; cited from earlier work"}, "[2]": {"test_system": "leukemia stem cells", "details": "caspase-dependent apoptosis, Ref. 28; cited from earlier work"}, "[3]": {"test_system": "MOLM13 and Kasumi-1 cell lines", "assay": "Annexin/PI flow cytometry apoptosis of shRNA-stable cells treated with KPT-9274", "type": "cell-based, human", "details": "KPT-9274 at sublethal IC20 dose, 48 hour", "excerpt": "(§1) FIGS. 2A-2M show show representative data for genetic depletion of HDAC8 or SIRT6 increases vulnerability of AML cell lines to KPT-9274 treatment. FIGS. 2A-2D show data for knockout efficiency of CDS- and 3′UTR-targeting shRNAs in MOLM13 and Kasumi-1 cells as assessed with Western blotting (FIGS. 2A, 2D) with GAPDH as a loading control. Densitometric quantification of protein band intensity is shown (n=2) in FIGS. 2B, 2E. FIGS. 2E-2H show representative data for depletion of HDAC8 or SIRT6 (as indicated in graphs) and sensitization of AML cell lines to KPT-9274 treatment. Dose-response curves of shRNA-stable MOLM13 and Kasumi-1 cells for 24-hour and 48-hour treatments are plotted. Cell viability was measured with MTS. […] Scrambled or gene-targeting shRNA-stable MOLM13 or Kasumi-1 cells were treated with IC20 dose of KPT-9274 for 48 hour and stained with Annexin/PI for flow cytometry analysis. Data are shown as mean±SEM of % population from duplicates. FIGS. 2K-2L show representative data that KPT-9274 attenuates AML self-renewal and induces myeloid differentiation in HDAC8 or SIRT6-depleted cells. Quantification of the number of colonies formed by shRNA-stable Kasumi-1 and MOLM13 cells in the presence or absence of KPT-9274 in CFU assays. Indicated number of cells were seeded into Methocult and colonies were counted and replated by a double-blind approach after 7 days. […]"}, "[4]": {"test_system": "Kasumi-1 cells", "assay": "MTS cell viability of shRNA-stable Kasumi-1 cells treated with KPT-9274", "type": "cell-based", "details": "Kasumi-1 scrambled control, 24 hour KPT-9274 treatment", "excerpt": "as §1, with “FIGS. 2K-2L show representative data that KPT-9274 attenuates AML self-renewal and induces myeloid differentiation in HDAC8 or SIRT6-depleted cells.” left out\nMTS assay. […] Plates were read by using a BioTek synergy H4 hybrid multimode microplate reader (Thermo Fisher Scientific) at 490 nM. […]"}, "[5]": {"test_system": "MOLM13 cells", "assay": "MTS cell viability of shRNA-stable or sgRNA-transfected MOLM13 cells treated with KPT-9274", "type": "cell-based, human", "details": "MOLM13, 48-hour treatment", "protocol": "FIGS. 7A-7B show representative data for knockdown of selected genes has modest effects on MOLM13 responses to KPT-9274 treatment. […] For the graphs in FIGS. 7A-7B, the responses of parental, shRNA-stable and sgRNA-transfected MOLM13 cells to KPT-9274 treatment (48-hour treatments) are plotted. Cell viability was measured with MTS (y-axis). Results are shown as mean±SEM of 4 technical replicates and 3 biological replicates. Western blotting for knockdown efficiency is shown.\nMTS assay. For MTS assays, AML cell lines or patient-derived cells were treated in a 96-well plate at 1-6×10^5 cells per well for 24-72 hours. Patient-derived CD34^+ primary cells were cultured in 96-well plates coated with collagen in the presence of 10 ng/ml IL-3, 10 ng/ml IL-6, 10 ng/ml SCF and 10 ng/ml GM-CSF. Cells were treated with increasing concentrations of KPT-9274 (0 nM to 10 μM) or vehicle control (dimethyl sulfoxide [DMSO]). […] MTS [3-(4,5-dimethylthiazol-2-yl)-5-(3-carboxymethoxyphenyl)-2-(4-sulfophenyl)-2H-tetrazolium](Pro-mega, Madison, WI) was incubated with drug-treated cells according to the manufacturer's instructions. Plates were read by using a BioTek synergy H4 hybrid multimode microplate reader (Thermo Fisher Scientific) at 490 nM. […]"}, "[6]": {"test_system": "SIRT6-depleted cells", "assay": "Phospho-H2A.X staining in shSIRT6 cells with KPT-9274", "type": "cell-based", "details": "SIRT6-depleted cells compared with scrambled control, in the presence of KPT-9274", "protocol": "(§2) Thereafter, cells were fixed, permeabilized and stained with BV421 mouse anti-H2A.X (pS139) (Clone N1-431). Stained cells were analyzed by flow cytometry. Results are shown as mean±SEM of duplicates. *p<0.05. N.S.: not significant. […] Results are shown as mean±SEM of duplicates. *p<0.05. […] MOLM13 cells were treated with vehicle control, 0.4 μM or 0.8 μM AR-42 alone, 0.1 μM or 0.25 μM KPT-2974 alone and drug combination for 24 hours before being subject to Western blotting analysis of HR, NHEJ and ATM markers. GAPDH served as loading control. Results are representative of two independent experiments. In the FIG. the treatment concentrations, protein detected in the given Western blot, and molecular weight of the protein detected are as shown in the figure. […] Scrambled or shHDAC8-transduced MOLM13 cells were treated with vehicle, 0.1 μM or 0.25 μM KPT-2974 before being subject to immunoblotting analysis of DNA repair targets. GAPDH serves as loading control. Results are representative of two independent experiments. In the FIG. the treatment concentrations, protein detected in the given Western blot, and molecular weight of the protein detected are as shown in the figure. […] PAPR1 was immunoprecipitated and mono-ADP-ribosylation was detected by western blotting. […]\n(§3) To elucidate the mechanism of the synergism between shSIRT6 and KPT-9274, the accumulation of phosph-H2A.X was measured. […]"}, "[7]": {"details": "Phase I trial; cited from earlier work"}, "[8]": {"test_system": "PARP1", "assay": "co-IP and western blotting of PARP1 mono-ADP-ribosylation", "type": "cell-based", "details": "eradicated by knockdown of SIRT6", "protocol": "as §2, §3"}},
  "data": [
    {"compound": "CC(C)[C@H](C(=O)Nc1ccc(C(=O)NO)cc1)c1ccccc1", "note": "[AR-42, (S)—N-Hydroxy-4-(3-methyl-2-phenylbutanamido)benzamide]", "values": [
      {"measurement": "tolerability of dose", "setting": "[1]", "value": "tolerated"},
      {"measurement": "death of leukemia stem cells", "setting": "[2]", "value": "induce death of leukemia stem cells"}
    ]},
    {"compound": "Nc1ccc(/C=C/C(=O)NCc2cc3cc(-c4ccc(C(=O)N5CCC(F)(F)CC5)cc4)cc(-c4ccc(F)cc4)c3o2)cn1", "note": "[KPT-9274, (E)-3-(6-aminopyridin-3-yl)-N-[[5-[4-(4,4-difluoropiperidine-1-carbonyl)phenyl]-7-(4-fluorophenyl)-1-benzofuran-2-yl]methyl]prop-2-enamide]", "values": [
      {"measurement": "percentage of apoptotic cells", "setting": "[3]; HDAC8 depletion", "value": "significantly increase"},
      {"measurement": "apoptosis of AML cells", "setting": "[3]; SIRT6 depletion", "value": "enhance apoptosis"},
      {"measurement": "IC50", "setting": "[4]", "value": "did not achieve IC50"},
      {"measurement": "synergy of knockdown of IMPA2, HEXA, PTGS1 and DCPS with KPT-9274 treatment", "setting": "[5]; MTS (FIG. 7A)", "value": "did not demonstrate strong synergies"},
      {"measurement": "impact of depletion of HDAC1, HDAC3 or HDAC6 with CRISPR on KPT-9274 sensitivity", "setting": "[5]; MTS (FIG. 7B)", "value": "did not have significant impact"},
      {"measurement": "DNA damage, phospho-H2A.X staining", "setting": "[6]", "value": "increased phospho-H2A.X staining"},
      {"measurement": "drug-related adverse events", "setting": "[7]", "value": "anemia and fatigue"},
      {"measurement": "tolerability vs 1st generation NAMPTi", "setting": "[7]", "value": "better tolerated"},
      {"measurement": "mono-ADP-ribosylation of PARP1", "setting": "[8]", "value": "enhanced"}
    ]}
  ]
}
